Drawing on BindingDB's records for doi:10.1021/jm00382a015 (1985), this text covers Ki for two compounds.

The assay concerns the target Adenosylhomocysteinase (Bos taurus). Description: Binding affinity against S-adenosyl-homocysteine hydrolase.

The compound `Nc1ncnc2c1nnn2C1CC(CO)C(O)C1O` (configuration not stated) [3-(7-amino-3H-[1,2,3]triazolo[4,5-d]pyrimidin-3-yl)-5-hydroxymethyl-1,2-cyclopentanediol] yielded a Ki of 22 µM. To `Nc1nccc2c1ncn2[C@@H]1C[C@H](CO)[C@@H](O)[C@H]1O` [3-DEAZAARISTEROMYCIN A] belongs 0.004 µM.
